The test system of test [1] is Salmonella typhimurium. Nature of the test: Antibacterial activity against Salmonella typhimurium MTCC 1251 assessed as zone of inhibition at 1 mg/disc after 24 hrs by disc diffusion method. Format: functional, Salmonella enterica subsp. enterica serovar Typhimurium.
Test [2] concerns Staphylococcus epidermidis. Briefly: Antibacterial activity against Staphylococcus epidermidis MTCC 3615 assessed as inhibition of visual growth after 24 hrs. Format: functional. To be noted: MTCC 3615, 24 h.
The subject of test [3] is Micrococcus luteus. Nature of the test: Antibacterial activity against Micrococcus luteus MTCC 106 assessed as inhibition of visual growth after 24 hrs. The settings on record: MTCC 106, 24 h. Format: functional.
Test [4] deals with Proteus vulgaris. Nature of the test: Antibacterial activity against Proteus vulgaris MTCC 1771 assessed as inhibition of visual growth after 24 hrs. Format: functional. The settings on record: MTCC 1771, 24 h.
The test system of test [5] is Staphylococcus aureus. Nature of the test: Antibacterial activity against Staphylococcus aureus MTCC 96 assessed as inhibition of visual growth after 24 hrs. It is filed as functional. The settings on record: MTCC 96, 24 h.
Test [6] has as its system Staphylococcus epidermidis. Briefly: Antibacterial activity against Staphylococcus epidermidis MTCC 3615 assessed as zone of inhibition at 1 mg/disc after 24 hrs by disc diffusion method. It is filed as functional. (Agar diffusion results depend on both activity and mobility in agar.)
For test [7], the system named is Staphylococcus aureus. Nature of the test: Antibacterial activity against methicillin-resistant Staphylococcus aureus assessed as zone of inhibition at 1 mg/disc after 24 hrs by disc diffusion method. Format: functional.
The subject of test [8] is Proteus vulgaris. Briefly: Antibacterial activity against Proteus vulgaris MTCC 1771 assessed as zone of inhibition at 1 mg/disc after 24 hrs by disc diffusion method. It is filed as functional.
Test [9] concerns Micrococcus luteus. Briefly: Antibacterial activity against Micrococcus luteus MTCC 106 assessed as zone of inhibition at 1 mg/disc after 24 hrs by disc diffusion method. It is filed as functional.
Test [10] concerns Klebsiella pneumoniae. Nature of the test: Antibacterial activity against Klebsiella pneumoniae MTCC 109 assessed as zone of inhibition at 1 mg/disc after 24 hrs by disc diffusion method. Format: functional.
Test [11] relates to Klebsiella pneumoniae. Briefly: Antibacterial activity against Klebsiella pneumoniae MTCC 109 assessed as inhibition of visual growth after 24 hrs. Format: functional. To be noted: MTCC 109, 24 h.
Test [12] relates to Shigella flexneri. Nature of the test: Antibacterial activity against Shigella flexneri MTCC 1457 assessed as zone of inhibition at 1 mg/disc after 24 hrs by disc diffusion method. Format: functional.
The subject of test [13] is Salmonella typhimurium. Nature of the test: Antibacterial activity against Salmonella typhimurium MTCC 1251 assessed as inhibition of visual growth after 24 hrs. It is filed as functional, Salmonella enterica subsp. enterica serovar Typhimurium. To be noted: Salmonella enterica, MTCC 1251, 24 h.
Test [14] relates to Candida albicans. Briefly: Antifungal activity against Candida albicans MTCC 227 assessed as inhibition of visual growth after 48 to 72 hrs. It is filed as functional.
The test system of test [15] is Candida albicans. Briefly: Antifungal activity against Candida albicans MTCC 227 assessed as zone of inhibition at 1 mg/disc after 48 hrs by disc diffusion method. It is filed as functional.
Test [16] relates to Malassezia pachydermatis. Briefly: Antifungal activity against Malassezia pachydermatis assessed as inhibition of visual growth after 48 to 72 hrs. It is filed as functional.
Test [17] concerns Staphylococcus aureus. Briefly: Antibacterial activity against Staphylococcus aureus MTCC 96 assessed as zone of inhibition at 1 mg/disc after 24 hrs by disc diffusion method. Format: functional.
Test [18] concerns Klebsiella aerogenes. Briefly: Antibacterial activity against Enterobacter aerogenes MTCC 111 assessed as inhibition of visual growth after 24 hrs. It is filed as functional. To be noted: MTCC 111, 24 h.
Test [19] relates to Klebsiella aerogenes. Nature of the test: Antibacterial activity against Enterobacter aerogenes MTCC 111 assessed as zone of inhibition at 1 mg/disc after 24 hrs by disc diffusion method. It is filed as functional.
Test [20] deals with Malassezia pachydermatis. Briefly: Antifungal activity against Malassezia pachydermatis assessed as zone of inhibition at 1 mg/disc after 48 hrs by disc diffusion method. It is filed as functional.
The subject of test [21] is Staphylococcus aureus. Nature of the test: Antibacterial activity against methicillin-resistant Staphylococcus aureus assessed as inhibition of visual growth after 24 hrs. It is filed as functional.
The subject of test [22] is Shigella flexneri. Nature of the test: Antibacterial activity against Shigella flexneri MTCC 1457 assessed as inhibition of visual growth after 24 hrs. Format: functional. The settings on record: MTCC 1457, 24 h.

Molecules are shown by their SMILES. ≈ marks a conversion by molar mass, not a printed value.

A word on the MIC: it is the smallest concentration in the dilution series that meets the test's criterion for growth inhibition. As to `N#C[C@]1(C(=O)c2c[nH]c3ccccc23)C2CCCN2[C@]2(C(=O)Nc3ccccc32)[C@@H]1c1cn(-c2ccccc2)nc1-c1ccccc1` (stereo not given in full), the “inhibition zone (IZ)” value was determined as 8 mm with Salmonella typhimurium [1]; 13 mm in test [6]; 10 mm in the test with Staphylococcus aureus [7]; 12 mm in the test with Proteus vulgaris [8]; 11 mm with Micrococcus luteus [9]; 9 mm with Klebsiella pneumoniae [10]. The “inhibition zone (IZ)” value in the test on Shigella flexneri [12] is 10 mm; in the test on Candida albicans [15], 10 mm; in the test with Staphylococcus aureus [17], 12 mm; with Klebsiella aerogenes [19], 12 mm; in the test on Malassezia pachydermatis [20], 8 mm. For the same compound, the MIC worked out at 62.5 µg/mL (≈ 102 µM) in test [2]; 31.2 µg/mL (≈ 50.8 µM) in the test with Micrococcus luteus [3]; 125 µg/mL (≈ 203 µM) in the test on Proteus vulgaris [4]; 31.2 µg/mL (≈ 50.8 µM) with Staphylococcus aureus [5]; 31.2 µg/mL (≈ 50.8 µM) in the test with Klebsiella pneumoniae [11]; 250 µg/mL (≈ 407 µM) in the test on Salmonella typhimurium [13]. Moreover, the MIC in the test with Candida albicans [14] turned out to be 125 µg/mL (≈ 203 µM); in the test on Malassezia pachydermatis [16], 500 µg/mL (≈ 813 µM); in the test on Klebsiella aerogenes [18], 62.5 µg/mL (≈ 102 µM); with Staphylococcus aureus [21], 31.2 µg/mL (≈ 50.8 µM); in the test with Shigella flexneri [22], 31.2 µg/mL (≈ 50.8 µM).
As for `N#C[C@]1(C(=O)c2c[nH]c3ccccc23)C2CSCN2[C@]2(C(=O)Nc3ccccc32)[C@@H]1c1cn(-c2ccccc2)nc1-c1ccccc1` (stereo not given in full), the “inhibition zone (IZ)” value is on record as 11 mm in the test with Salmonella typhimurium [1]; 13 mm in test [6]; 8 mm with Staphylococcus aureus [7]; 10 mm in the test on Proteus vulgaris [8]; 11 mm in the test with Micrococcus luteus [9]; 10 mm in the test with Klebsiella pneumoniae [10]. For the same compound, the “inhibition zone (IZ)” value in the test with Shigella flexneri [12] came out at 8 mm; with Candida albicans [15] it was 9 mm; in the test on Staphylococcus aureus [17] it was 14 mm; in the test with Klebsiella aerogenes [19], 13 mm; in the test with Malassezia pachydermatis [20], 8 mm. Moreover, the MIC (in [2]; in the test on Micrococcus luteus [3]; with Proteus vulgaris [4]; in the test with Staphylococcus aureus [5]; with Klebsiella pneumoniae [11]; in the test with Salmonella typhimurium [13]) was 500 µg/mL (≈ 790 µM) in each case. Further, the minimum inhibitory concentration (MIC) is 1250 µg/mL (≈ 1980 µM) in the test with Candida albicans [14]; 250 µg/mL (≈ 395 µM) in the test on Malassezia pachydermatis [16]; 500 µg/mL (≈ 790 µM) in the test on Klebsiella aerogenes [18]; 500 µg/mL (≈ 790 µM) in the test with Staphylococcus aureus [21]; 500 µg/mL (≈ 790 µM) with Shigella flexneri [22].
On to `CC(=O)N1CCN(c2ccc(OCC3COC(Cn4ccnc4)(c4ccc(Cl)cc4Cl)O3)cc2)CC1` (stereo not given) [KETOCONAZOLE], for which the “inhibition zone (IZ)” value is recorded as 18 mm in the test with Salmonella typhimurium [1]; 14 mm in [6]; 30 mm with Staphylococcus aureus [7]; 30 mm with Proteus vulgaris [8]; 26 mm in the test on Micrococcus luteus [9]; 20 mm with Klebsiella pneumoniae [10]. Further, the “inhibition zone (IZ)” value with Shigella flexneri [12] turned out to be 30 mm; in the test on Candida albicans [15] it was 28 mm; in the test with Staphylococcus aureus [17], 14 mm; with Klebsiella aerogenes [19] it was 22 mm; in the test with Malassezia pachydermatis [20], 26 mm. Also, the minimal inhibitory concentration (MIC) in test [2] was 6.25 µg/mL (≈ 11.8 µM); with Micrococcus luteus [3], 6.25 µg/mL (≈ 11.8 µM); in the test with Staphylococcus aureus [5], 6.25 µg/mL (≈ 11.8 µM); in the test on Klebsiella pneumoniae [11] it was 6.25 µg/mL (≈ 11.8 µM); in the test with Salmonella typhimurium [13], 30 µg/mL (≈ 56.5 µM); in the test with Candida albicans [14], 25 µg/mL (≈ 47 µM). Also, the MIC is 25 µg/mL (≈ 47 µM) in the test on Malassezia pachydermatis [16], 25 µg/mL (≈ 47 µM) in the test on Klebsiella aerogenes [18], 6.25 µg/mL (≈ 11.8 µM) in the test with Staphylococcus aureus [21] and 6.25 µg/mL (≈ 11.8 µM) in the test with Shigella flexneri [22].

Values taken from ChEMBL document CHEMBL3351686, “Facile and diastereoselective synthesis of 3,2'-spiropyrrolidine-oxindoles derivatives, their molecular docking and antiproliferative activities” (2015).
